Tests used:
[1] = system: FKBP5; assay: Western blot FKBP5 protein in R1-AD1 cells; format: cell-based, human
Experimental: Cell lysates (40 μl) from luciferase assays (96-well plate) were separated on a 10% SDS-polyacrylamide mini gel. Protein was transferred to methanol-charged PVDF membranes and probed with anti-AR441 (mouse, Sigma™) monoclonal primary antibody. Blots were also probed with polyclonal anti-actin (rabbit, Sigma™) to show equal loading and polyclonal anti-PARP/anti-cleaved PARP (rabbit, Sigma™) to test for induction of apoptosis. Lysates from CWR-R1 cells were additionally probed with polyclonal anti-FKBP5 (rabbit, Sigma™) following 2 days of incubation with compounds.

[2] = target: T1, AR-DBD+hinge / ARE dsDNA (Homo sapiens, UniProt P10275); assay: Biolayer interferometry analysis of dsDNA (ARE) association with biotinylated AR-DBD+hinge; format: binding; parameters: His tag (C); made in house; host or cells: E. coli BL21 co-transformed with biotin ligase vector (pBir-Acm); conditions: 50 μM compound
T1 sequence (P10275 558-689): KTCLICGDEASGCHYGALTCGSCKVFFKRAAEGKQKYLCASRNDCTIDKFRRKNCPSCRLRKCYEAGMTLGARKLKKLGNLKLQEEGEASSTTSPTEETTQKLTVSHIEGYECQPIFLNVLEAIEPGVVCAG
Experimental: The plasmid encoding the AR-DBD+hinge was transformed into BL21 (DE3). BL21 cells designated for expression of biotin-labeled AR-DBD+hinge were co-transformed with the Pan4 AR-DBD+hinge (ampicillin selection) and biotin ligase expression vectors (pBir-Acm, chloramphenicol selection). Single colonies were grown in 2 liters of LB media supplemented with 50 μg/ml ampicillin and 35 μg/ml chloramphenicol (where appropriate) to A600 nm=0.6 before induction with 0.1 mM isopropyl β-D-1-thiogalactopyranoside for 3 h at 37° C. Cultures expressing the AR-DBD with the biotinylation sequence were simultaneously supplemented with 0.150 mM biotin during the induction step. Cell pellets were resuspended in ˜20 ml of 50 mM Tris-HCl, pH 8.0, 300 mM NaCl, 5% glycerol (Buffer A) supplemented with 10 mM imidazole and incubated with 0.1 mg/ml chicken egg white lysozyme (Sigma™) and 0.1 mM PMSF protease inhibitor for 30 min on ice. Cell lysis was achieved by sonication, followed by centrifugation at 13,000×g for 30 min at 4° C. The supernatant was rotated with 2 ml of nickel-agarose beads (GE Healthcare™) for 1 h at 4° C. and then directly loaded onto a Poly-Prep 10-ml gravity chromatography column (Bio-Rad™). Washing was performed with 2×4 ml of Buffer A supplemented with 20 mM imidazole. Pure proteins were eluted in 500-μl fractions with 2 ml of Buffer A containing 250 mM imidazole.
Biolayer interferometry analysis on a ForteBio Octet Red™ instrument was carried out using biotinylated AR-DBD+hinge in Buffer A with 5% DMSO throughout all experiments. The DBD (0.1 mg/ml) was loaded onto streptavidin sensors in 200 μl of buffer for 30 min, followed by blocking of free streptavidin sites with biocytin (10 μg/ml) for 10 min. DBD-loaded sensors were then pre-equilibrated in 50 μM compound or 5% DMSO alone for 100 s in the same buffer. The kinetics of DNA association were monitored by moving sensors into wells containing dsDNA (ARE, 3 μM) supplemented with 50 μM compound for 120 s. This was followed by dissociation in buffer+compound, but lacking DNA, for an additional 120 s. Biocytin-blocked control sensors (no AR-DBD) were subjected to the same experimental conditions, and nonspecific interactions with dsDNA were subtracted from each curve.

[3] = system: LNCaP cells; assay: Cell viability (MTS) assay, LNCaP; format: cell-based, human; conditions: 0.1 nM R1881
Experimental: 1. Cell Culture: LNCaP and PC3 human prostate cancer cells were obtained from American Type Culture Collection (ATCC, Manassas, Va.) and grown in RPMI 1640 medium supplemented with 5% fetal bovine serum (FBS) (Invitrogen). […]. All cells were maintained at 37° C. in 5% CO2.
7. Cell viability assay: The PC3, LNCaP, and MDV3100-resistant cells were plated at 3,000 cells per well in RPMI 1640 containing 5% charcoal stripped serum (CSS) in a 96-well plate, treated with 0.1 nM R1881 and compounds (0-25 μM) for 96 hrs.

[4] = target: T2, YFP-V7 (Homo sapiens, UniProt P10275); assay: Luciferase assay with YFP-V7 in PC3 cells; format: cell-based
T2 construct: expressed in transfected cells; host or cells: PC3
Source text: the underlined primer sections anneal to the specified template, although their 5′-extensions (italicized) are complementary to the corresponding primer sequence of the other PCR. Plasmid assembly is achieved by mixing the PCR products from each reaction (Klock, H. E. et al. (2008) Combining the polymerase incomplete primer extension method for cloning and mutagenesis with microscreening to accelerate structural genomics efforts. Proteins 71, 982-994), followed by transformation into chemically competent bacteria. A similar strategy was used to clone the AR-DBD+hinge into the Pan4 vector (avidity) expressing the N-terminal biotinylation sequence ([…] ) and C-terminal His tag. YFP-AR plasmid was a gift from Dr. Jan Trapman (van Royen, M. E. et al. (2012) Stepwise androgen receptor dimerization. J. Cell Sci. 125, 1970-1979) and is based on pEYFP-C1 (Clontech™). YFP-V7 was constructed by polymerase incomplete primer extension method using the following primers and templates: AR-V7 insert from pcDNA3. AR-V7 template

[5] = system: endogenous wild type AR; assay: ARR3tk-luciferase assay in R1-AD1 cells; format: cell-based, human
[6] = system: PSA; assay: Prostate-specific antigen (PSA) assay, secreted PSA from the eGFP assay plates; format: cell-based, human; conditions: Homo sapiens
Experimental: 3. Prostate-specific antigen (PSA) assay: The evaluation of PSA levels secreted into the media was performed in parallel to the eGFP assay using the same plates. After cells were incubated for 3 days, 150 μl of the media was taken from each well, and added to 150 μl of PBS.

[7] = LNCaP eGFP cells, R1881, secreted PSA

T2 sequence (P10275 1-644 isoform P10275-3): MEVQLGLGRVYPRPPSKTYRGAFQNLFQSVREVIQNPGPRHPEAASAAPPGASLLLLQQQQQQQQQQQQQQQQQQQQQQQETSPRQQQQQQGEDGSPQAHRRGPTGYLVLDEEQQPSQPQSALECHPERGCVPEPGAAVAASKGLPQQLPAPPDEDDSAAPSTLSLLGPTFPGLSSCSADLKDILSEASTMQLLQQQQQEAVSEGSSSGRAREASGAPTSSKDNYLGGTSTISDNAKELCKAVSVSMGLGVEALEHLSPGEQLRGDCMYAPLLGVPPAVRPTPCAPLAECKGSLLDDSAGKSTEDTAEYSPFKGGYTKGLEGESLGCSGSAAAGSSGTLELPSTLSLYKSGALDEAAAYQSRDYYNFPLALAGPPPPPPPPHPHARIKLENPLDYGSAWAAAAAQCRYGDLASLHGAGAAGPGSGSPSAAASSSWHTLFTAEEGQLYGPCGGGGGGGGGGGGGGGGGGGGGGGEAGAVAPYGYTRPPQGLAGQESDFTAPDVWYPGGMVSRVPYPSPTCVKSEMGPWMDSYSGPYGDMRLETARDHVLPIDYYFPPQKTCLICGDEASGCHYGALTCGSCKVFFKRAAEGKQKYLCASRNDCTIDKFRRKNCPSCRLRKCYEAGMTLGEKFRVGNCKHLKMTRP

| Structure (SMILES) | FKBP5 protein expression, R1-AD1 cells [1] | dsDNA dissociation from AR-DBD [2] | rate of dsDNA association with AR-DBD [2] | inhibition of cell growth, LNCaP [3] | inhibition of YFP-V7 driven luciferase expression [4] | inhibition of wild type AR transcriptional activity [5] | IC50 [6, 7] [nM] | IC50 ([6]; Series 1) [nM] |
| --- | --- | --- | --- | --- | --- | --- | --- | --- |
| Brc1ncn(-c2csc(N3CCOCC3)n2)c1Br [Compound 14449] | reduced | relatively unchanged | significantly slower rate of dsDNA binding | concentration-dependent inhibition of the cell growth | could be inhibited | could inhibit | 170 | 170 |
| c1ccc(-c2csc(N3CCOCC3)n2)cc1 [Compound 14228, 4-(4-phenylthiazol-2-yl)morpholine] | reduced | relatively unchanged | significantly slower rate of dsDNA binding | strongly inhibits | could be inhibited | could inhibit | 188 | 280 |

— patent publication US10011573B2, “Human androgen receptor DNA-binding domain (DBD) compounds as therapeutics and methods for their use” (The University of British Columbia, priority 2014, dated 2018)
